Laboratory results from patent publication US10501479B2, “Benzenesulfonyl-asymmetric ureas and medical uses thereof” (HELSINN HEALTHCARE SA, priority 2016, dated 2019).

Assays:
Type in all cases: cell-based
[1] = target: T1, recombinant human ghrelin receptor (HEK293/GRLN) (Homo sapiens, UniProt Q92847); experiment: Ghrelin inverse agonist potency (EC50) with IP-1 (IP-One HTRF) assay; conditions: IP-1 assay, HEK293/GRLN; read-out: Activity EC50 (ghrelin inverse agonist potency)
T1 construct: expressed in transfected cells
Summary of the method: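 HEK293/GRLN cells were seeded 18-22 hours before the test, then exposed to compound in stimulation buffer for 1 hour at 37° C, 5% CO2. IP-1 was detected by IP-One HTRF (IP1-d2 plus Tb-cryptate, 1 hour RT), reading 620 and 665 nm; the inverse agonist EC50 was derived from this.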

[2] = target: T2, GHSR-1a (HEK293/GHSR1a cell line) (Homo sapiens, UniProt Q92847); experiment: Ghrelin agonist potency (EC50) with calcium FLIPR assay; conditions: HEK293/GHSR1a, read-out: Activity EC50/EMax: EC50 (ghrelin agonist potency)
T2 construct: expressed in transfected cells; host or cells: HEK293/GHSR1a cell line
Description: Evaluation of Ghrelin Agonist (EC50) and Antagonist Potency (IC50) with Calcium FLIPR Assay:
The intracellular calcium assay was carried out in a 384-well format FLIPR™ (Molecular Device) HEK293/GHSR1a cell line. Cells were seeded 24 hr prior to the experiments at an optimal density per well. Preincubation with selected calcium dye lasted for 30-60 min at room temperature or 37° C. Test compounds, dissolved in DMSO, were added at the appropriate time and incubated for 15 min followed by the addition of ghrelin with FlexStation or FLIPR. Relative fluorescence was monitored by the FLIPR™ Molecular Device. EC50 and IC50 values were estimated from dose-response data using GraphPad Prism software. To check for GHSR-1a agonism, the compound was added at t=20 sec. and the calcium response was followed for 2 minutes. To check for GHSR-1a antagonism, the compound and Ghrelin (10 nM) were added to the cells at t=20 sec. and the calcium response was measured for 2 minutes. The potency of the antagonist was calculated by its ability to reduce the ghrelin response. Dose-response curves were made for relevant antagonists.

[3] = target: T2, GHSR-1a (HEK293/GHSR1a cell line); experiment: Ghrelin antagonist potency (IC50) with calcium FLIPR assay, ghrelin 10 nM; conditions: HEK293/GHSR1a, ghrelin 10 nM, read-out: Activity IC50 (ghrelin antagonist potency)
Summary of the method: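 Cells seeded 24 h before the run were loaded with calcium dye for 30-60 min at room temperature or 37° C. For agonism, compound was added at t=20 sec and the calcium signal followed for 2 minutes. For antagonism, compound plus ghrelin (10 nM) went on at t=20 sec, and IC50 reflected the drop in ghrelin response.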

T1 sequence (Q92847 whole entry): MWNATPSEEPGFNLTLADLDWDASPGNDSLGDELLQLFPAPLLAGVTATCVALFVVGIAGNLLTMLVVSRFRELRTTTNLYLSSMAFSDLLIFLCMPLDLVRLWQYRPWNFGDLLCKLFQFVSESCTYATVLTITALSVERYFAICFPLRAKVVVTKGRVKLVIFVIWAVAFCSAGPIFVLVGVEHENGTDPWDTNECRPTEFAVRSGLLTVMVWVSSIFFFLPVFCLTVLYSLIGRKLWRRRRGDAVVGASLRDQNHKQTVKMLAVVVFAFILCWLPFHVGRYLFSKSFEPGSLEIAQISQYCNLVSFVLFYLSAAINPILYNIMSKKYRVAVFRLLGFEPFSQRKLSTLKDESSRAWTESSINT
T2 sequence (Q92847 whole entry): as above

| Structure (SMILES) | EC50 [1] [µM] | EC50 [2] [µM] | IC50 [3] [µM] |
| --- | --- | --- | --- |
| CC(NC(=O)Nc1ccc(S(=O)(=O)Cc2ccc3c(c2)CN(C)C3)cc1)c1cc(N2CCOCC2)ccc1Cl (stereo not drawn) [H1284, 1-(1-(2-chloro-5-morpholinophenyl)ethyl)-3-(4-(((2-methylisoindolin-5-yl)methyl)sulfonyl)phenyl)urea] | 0.371 | > 30 | 1.9 |
| CC(NC(=O)Nc1ccc(S(=O)(=O)Cc2ccc3c(c2)CNC3)cc1)c1ccccn1 (stereo not drawn) [H1289, 1-(4-((isoindolin-5-ylmethyl)sulfonyl)phenyl)-3-(1-(pyridin-2-yl)ethyl)urea] | 0.161 | 0.147 | 0.542 |
| CC(NC(=O)Nc1ccc(S(=O)(=O)Cc2cccc(CN)c2)cc1)c1ccccc1 (stereo not drawn) [H1290, 1-(4-((3-(aminomethyl)benzyl)sulfonyl)phenyl)-3-(1-phenylethyl)urea] | 0.722 | > 30 | 3.41 |
| CC(NC(=O)Nc1ccc(S(=O)(=O)Cc2ccc3c(c2)C(=O)NC3)cc1)c1ccccc1 (stereo not drawn) [H1291, 1-(4-(((3-oxoisoindolin-5-yl)methyl)sulfonyl)phenyl)-3-(1-phenylethyl)urea] | 0.468 | > 30 | 1.2 |
| CC(NC(=O)Nc1ccc(S(=O)(=O)Cc2ccc3c(c2)C(O)CC3)cc1)c1ccccc1 (stereo not drawn) [H1293, 1-(4-(((3-hydroxy-2,3-dihydro-1H-inden-5-yl)methyl)sulfonyl)phenyl)-3-(1-phenylethyl)urea] | 0.93 | > 30 | 5.68 |
| COc1ccc(C(C)NC(=O)Nc2ccc3c(c2)C=C(c2ccc4c(c2)CN(Cc2ccccc2)C4)S3(=O)=O)cc1 (stereo not drawn) [H1296, 1-(2-(2-benzylisoindolin-5-yl)-1,1-dioxidobenzo[b]thiophen-5-yl)-3-(1-(4-methoxyphenyl)ethyl)urea] | 4.92 | 13.2 | > 30 |
| COc1ccc(C(C)NC(=O)Nc2ccc(S(=O)(=O)Cc3ccc4c(c3)CNC4)cc2)cc1 (stereo not drawn) [H1298, 1-(4-((isoindolin-5-ylmethyl)sulfonyl)phenyl)-3-(1-(4-methoxyphenyl)ethyl)urea] | 0.115 | > 30 | 0.506 |
| O=C(NCc1cccnc1)Nc1ccc(S(=O)(=O)Cc2ccc3c(c2)CNC3)cc1 [H1301, 1-(4-((isoindolin-5-ylmethyl)sulfonyl)phenyl)-3-(pyridin-3-ylmethyl)urea] | 1.14 | > 30 | 4.45 |
| C[C@H](NC(=O)Nc1ccc(S(=O)(=O)CC2CCNCC2)cc1)c1ccccc1 [H1303, (S)-1-(1-phenylethyl)-3-(4-((piperidin-4-ylmethyl)sulfonyl)phenyl)urea] | > 30 | > 30 | > 30 |
| CCN(CC)Cc1ccc(CS(=O)(=O)c2ccc(NC(=O)NC(C)c3ccccc3)cc2)cc1 (stereo not drawn) [H1304, 1-(4-((4-((diethylamino)methyl)benzyl)sulfonyl)phenyl)-3-(1-phenylethyl)urea] | 0.182 | > 30 | 0.145 |
| CC(NC(=O)Nc1ccc(S(=O)(=O)Cc2ccc3c(c2)CN(C)C3)cc1)c1ccccn1 (stereo not drawn) [H1307, 1-(4-(((2-methylisoindolin-yl)methyl)sulfonyl)phenyl)-3-(1-(pyridin-2-yl)ethyl)urea] | 0.935 | > 30 | 2.3 |
| CC(NC(=O)Nc1ccc(S(=O)(=O)Cc2ccc3c(c2)CN(C)C3)cc1)c1cncnc1 (stereo not drawn) [H1309, 1-(4-(((2-methylisoindolin-5-yl)methyl)sulfonyl)phenyl)-3-(1-(pyrimidin-5-yl)ethyl)urea] | 1.84 | > 30 | 4.5 |
| CC(=O)Oc1ccc(C(C)NC(=O)Nc2ccc(S(=O)(=O)Cc3ccc4c(c3)CNC4)cc2)cc1 (stereo not drawn) [H1310, 4-(1-(3-(4-((isoindolin-5-ylmethyl)sulfonyl)phenyl)ureido)ethyl)phenylacetate] | 0.184 | > 30 | 0.262 |
| CC(NC(=O)Nc1ccc(S(=O)(=O)Cc2ccc3c(c2)CNC3)cc1F)c1ccccc1 (stereo not drawn) [H1316, 1-(2-fluoro-4-((isoindolin-5-ylmethyl)sulfonyl)phenyl)-3-(1-phenylethyl)urea] | 0.0116 | > 30 | 0.0309 |
| CC(NC(=O)Nc1ccc(S(=O)(=O)Cc2cc3c(s2)CNC3)cc1)c1ccccc1 (stereo not drawn) [H1320, 1-(4-(((5,6-dihydro-4H-thieno[2,3-c]pyrrol-2-yl)methyl)sulfonyl)phenyl)-3-(1-phenylethyl)urea] | 0.0433 | > 30 | 0.0584 |
| O=C(Nc1ccc(S(=O)(=O)Cc2ccc3c(c2)CNC3)cc1)NC1COc2ccccc21 (stereo not drawn) [H1330, 1-(2,3-dihydrobenzofuran-3-yl)-3-(4-((isoindolin-5-ylmethyl)sulfonyl)phenyl)urea] | 0.142 | > 30 | 0.147 |
| CN1Cc2ccc(CS(=O)(=O)c3ccc(NC(=O)NC4COc5ccccc54)cc3)cc2C1 (stereo not drawn) [H1331, 1-(2,3-dihydrobenzofuran-3-yl)-3-(4-(((2-methylisoindolin-5-yl)methyl)sulfonyl)phenyl)urea] | 0.13 | > 30 | 0.213 |
| C[C@@H](NC(=O)Nc1ccc(S(=O)(=O)Cc2ccc(C3CCCN3)cc2)cc1)c1ccccc1 (stereo partly drawn) [H1332, 1-((R)-1-phenylethyl)-3-(4-((4-(pyrrolidin-2-yl)benzyl)sulfonyl)phenyl)urea] | 0.0421 | > 30 | 0.0732 |
| CN1Cc2ccc(CS(=O)(=O)c3ccc(NC(=O)N[C@H]4CCCc5ccccc54)cc3)cc2C1 [H1335, (S)-1-(4-(((2-methylisoindolin-5-yl)methyl)sulfonyl)phenyl)-3-(1,2,3,4-tetrahydronaphthalen-1-yl)urea] | 0.0699 | > 30 | 0.133 |
| CN1Cc2ccc(CS(=O)(=O)c3ccc(NC(=O)N[C@@H]4CCCc5ccccc54)cc3)cc2C1 [H1336, (R)-1-(4-(((2-methylisoindolin-5-yl)methyl)sulfonyl)phenyl)-3-(1,2,3,4-tetrahydronaphthalen-1-yl)urea] | 0.263 | > 30 | 0.381 |
| CC(NC(=O)Nc1ccc(S(=O)(=O)Cc2ccc3c(c2)CN(CC#N)C3)cc1)c1ccccc1 (stereo not drawn) [H1339, 1-(4-(((2-(cyanomethyl)isoindolin-5-yl)methyl)sulfonyl)phenyl)-3-(1-phenylethyl)urea] | 0.176 | > 30 | 0.309 |
| CC(NC(=O)Nc1ccc(S(=O)(=O)Cc2ccc3c(c2)CN(CC2CCCO2)C3)cc1)c1ccccc1 (stereo not drawn) [H1341, 1-(1-phenylethyl)-3-(4-(((2-((tetrahydrofuran-2-yl)methyl)isoindolin-5-yl)methyl)sulfonyl)phenyl)urea] | 0.0209 | > 30 | 0.0697 |
| C[C@@H](NC(=O)Nc1ccc(S(=O)(=O)Cc2cc3c(s2)CN(C)C3)cc1)c1ccccc1 [H1348, (R)-1-(4-(((5-methyl-5,6-dihydro-4H-thieno[2,3-c]pyrrol-2-yl)methyl)sulfonyl)phenyl)-3-(1-phenylethyl)urea] | 0.0199 | > 30 | 0.065 |
| CN1CCc2cc(CS(=O)(=O)c3ccc(NC(=O)NCc4cccc(Cl)c4Cl)cc3)ccc2C1 [H1349, 1-(2,3-dichlorobenzyl)-3-(4-(((2-methyl-1,2,3,4-tetrahydroisoquinolin-6-yl)methyl)sulfonyl)phenyl)urea] | 0.029 | > 30 | 0.0153 |
| CC(NC(=O)Nc1ccc(S(=O)(=O)Cc2ccc3c(c2)C[N+](C)([O-])C3)cc1)c1ccccc1 (stereo not drawn) [H1350, 2-methyl-5-(((4-(3-(1-phenylethyl)ureido)phenyl)sulfonyl)methyl)isoindoline 2-oxide] | 7.46 | > 30 | 18.2 |
| C[C@@H](NC(=O)Nc1ccc(S(=O)(=O)Cc2csc3c2CN(C)C3)cc1)c1ccccc1 [H1351, (R)-1-(4-(((5-methyl-5,6-dihydro-4H-thieno[2,3-c]pyrrol-3-yl)methyl)sulfonyl)phenyl)-3-(1-phenylethyl)urea] | 6.96 | > 30 | 3.45 |
| C[C@H](NC(=O)Nc1ccc(S(=O)(=O)Nc2ccc3c(c2)CCN(C)C3)cc1)c1cccc(Cl)c1Cl [H1352, (S)-4-(3-(1-(2,3-dichlorophenyl)ethyl)ureido)-N-(2-methyl-1,2,3,4-tetrahydroisoquinolin-6-yl)benzenesulfonamide] | 0.0077 | > 30 | 0.0046 |
| CC(=O)N1CC(NC(=O)Nc2ccc(S(=O)(=O)Cc3ccc4c(c3)CNC4)cc2)c2ccccc21 (stereo not drawn) [H1353, 1-(1-acetylindolin-3-yl)-3-(4-((isoindolin-5-ylmethyl)sulfonyl)phenyl)urea] | 8.23 | > 30 | 5.1 |
